The text below walks through data of patent US20070166547A1, “Use of a layer consisting of hydrophobic linear, or two-dimensional polycyclic aromatics as a barrier layer or an encapsulation and electric components constructed with a layer of this type and comprising organic polymers” (priority 2003, published 2007).

One test relates to plasma hemostasis. The experiment in a line: Thrombin time after intravenous administration. Format: in vivo, rabbit. On the procedure:
The investigations were performed on 72 rabbits of the “Chinchilla” breed with a mass of 2.5±0.3 kg, who were administered which solutions of compounds 2, 15, 21, 37 in doses of 15, 30 and 60 mg/kg intravenously. The experiments included the thrombin-test (series No. 7300) and the coagulability-test (series No. 5000) purchased from the scientific-and-production association (SPA) “Renam”, thromboplastin (series No. 240600) and calcium chloride purchased from the SPA “MedioLab”
The static parameters of the blood and plasma coagulation (partial activated thromboplastin time, thrombin time, maximum coagulation activity (test for auto coagulation) were determined using the Behnk Electronic coagulometer (Germany). The operating principle of this instrument is based on the fact that the formed blood clot breaks the contacts of the pulse counter in the flask-pin circuit, said pin permanently oscillating in a vertical plane. The moment of formation of the clot is registered by stopping the stop watch hand.
The measurements were effected at a constant temperature of 37° C. maintained by a temperature control unit.
The “thrombin time” characterizes the rate of transformation of fibrinogen into fibrin. It was determined by measuring the coagulation time of plasma deprived of thrombocytes under the effect of thrombin standardized by the control plasma.
0.2 ml of a thrombin solution was added to 0.2 ml of the test blood plasma of experimental animals, from whom the blood was taken 15, 30, 60 and 120 minutes after the intravenous administration of compounds 2, 15, 21, 37 according to the invention in doses of 15, 30, 60 mg/kg incubated for 1 minute at a temperature of 37° C. and the time of formation of clot T2 in seconds in a coagulometer of the Behnk Electronic Company (Germany).

For test [1], the system named is embyronic fibroblasts of mouse NIH-3T3. The experiment in a line: Endocellular pHi of fibroblasts by microspectrofluorimetry (FDA, BCECF-AM). Type of test: cell-based. The following applies: for rise of pHi: fibroblasts in an attached spread state; for increase of pHi: 20 minutes. On the procedure:
The effect of the compounds according to the invention on the endocellular pH, embyronic fibroblasts of mouse NIH-3T3 supplied by the All-Russian Collection of Cellular Cultures of the Institute of Cytology of the Russian Academy of Sciences St. Petersburg was investigated. The cells were grown in the DMEM (Sigma) medium containing 2.2 g/l of sodium bicarbonate with addition of 80.0 mkg/ml of gentamicin and 10.0% embryonal veal serum at a temperature of 37° C. in an atmosphere containing 5.0% of carbon dioxide. For these experiments use was also made of a medium buffer with 5.0 mM of HEPES and 15.0 mM of sodium bicarbonate without serum or with addition of 5.0% serum. The cells were calculated with the help of a hemocytometer. A share of the dead cells was determined by colouring trypan blue.
The measurements of the endocellular pHi were carried out with the help of colorants FDA (Sigma) and BCECF-AM (Calbiochem) on a microspectrofluorimeter by a standard technique (Koshevoy Yu. V., Akatov V. S., Grobova M. E. Microspectrofluorimeter for measuring endocellular pH (micro pH)”. Devices and equipment for studies in the field of physical-and-chemical biology and biotechnology. Pushchino, 1990. P. 8-14).
The cells at a temperature of 37° C. were colored within 5 minutes with 5.0 mkM PDA that before the colouring was prepared from a 10.0 mM solution in acetone by dilution for 30 minutes in a phosphatic buffer to 0.1 mM or 2.0 mkM 1.0 mM solution BCECF-AM in DMSO.
The two-wave method of determining pHi was used based on the ratio intensities of fluorescence of the cells on two wavelengths (Akatov V. S. et all), “Endocellular pH and substrate dependence of proliferation of fibroblasts of Chinese hamster, Cytology, 1991, 33 (7), p. 86-94). The fluorescence was excited by light at λ=490 nm, the emission was recorded simultaneously with two photomultipliers on wavelengths λ=535 nm and λ=570 nm. The K-ratio of the fluorescence on two wavelengths was determined with a deduction of the background fluorescence of the medium near the investigated cells for 40-60 individual cells, which are then averaged taking into account the measurement error. A thermostatically controlled table was used that allowed measurements to be conducted at a temperature of 37° C. An account was taken for the photodynamic damage of the pigmented cells during-long-time continuous illumination by excited light. The readings were taken from a section of the preparation exposed to light for not more than 5 minutes.
The calibration curves for determining the absolute pHi values by magnitude K were constructed using the Thomas technique (Thomas J. A., Bushbaum R. N., Zimniak A. w Racker E. “Intracellular pH measurements in Ehrlich ascites tumor cells utilizing spectroscopic probe generated in situ”, Biochemistry, 1979, v. 18, p. 2210-2218), for which case the pigmented cells treated for 5-10 minutes with carboxyacidic nigericyn (Calbiochem) at a concentration of 5-10 mkg/ml was placed in a solution with a high content of potassium—130 mM KCl, 1.0 mM MgCl2, 20.0 mM of HEPES) and with pH values from 6.2 to 7.6. The K values were measured in the media with different pH assuming that pHi of the cells equals to the pH of the medium due to the action of nigericyn, which exchanges potassium ions for protons and at a high content of potassium in the medium counterbalances the pH of the medium and cells. Calibration curves were used based on the fluorescence of same medium with addition of 5.0 mkM of fluorescence or BCECF were used to the control the stability of the of the instrument readings.
The correctness of the technique was confirmed in the experiments on measurements of pH values of cells treated with protonofor monencine raising pH of the cells due to replacement of sodium ions by protons, and by determining the dependence of the change of pHi on the change of the pH of the medium. […]

The next test has as its system thymus. The experiment in a line: Morphine abstinence model: thymus condition. Format: in vivo, rats. The note with it: compound alone.
[2] abbreviates: medium with 10.0% blood serum, 0.02 mkg/ml, suspension.
[3] abbreviates: medium with 10.0% blood serum, 0.2 mkg/ml, suspension.
Setting [4] is: medium with 10.0% blood serum, 2.0 mkg/ml, suspension.
Where [5] appears, read: medium with 10.0% blood serum, 20.0 mkg/ml, suspension.
Setting [6] is: medium without blood serum, 0.02 mkg/ml.
Setting [7] is: medium without blood serum, 0.2 mkg/ml.
[8] abbreviates: medium without blood serum, 2.0 mkg/ml.
Setting [9] is: medium without blood serum, 20.0 mkg/ml.
Where [10] appears, read: medium without blood serum, 200 mkg/ml.
Where [11] appears, read: medium without blood serum, 1000 mkg/ml.

Marks after values point to notes of the source that are not given here.

Consider `Nc1ccnc2c(=O)n([C@@H]3O[C@H](CO)[C@@H](O)[C@H]3O)[nH]c(=O)c12` [Compound 2, 4-amino-7-(β-D-ribofuranosile)pyrido[2,3-d]-6H-pyridazine-5,8-dione], for which, in the test on plasma hemostasis (dose 15.0 mg/kg intravenously), the “T2, s After 120 minutes (thrombin time)” value is 15.3* s; the “T2, s after 15 minutes (thrombin time)” value is recorded as 16.2* s; the “T2, s after 30 minutes (thrombin time)” value was 17.0* s; the “T2, s after 60 minutes (thrombin time)” value is 16.0* s. In the test with plasma hemostasis (dose 30.0 mg/kg intravenously), the “T2, s After 120 minutes (thrombin time)” value was 15.3* s; the “T2, s after 15 minutes (thrombin time)” value is given as 17.8* s; the “T2, s after 30 minutes (thrombin time)” value was 18.4* s; the “T2, s after 60 minutes (thrombin time)” value is listed as 19.2* s. Further, in the test with plasma hemostasis (dose 60.0 mg/kg intravenously), the “T2, s After 120 minutes (thrombin time)” value is 15.3* s; the “T2, s after 15 minutes (thrombin time)” value is reported as 16.0* s; the “T2, s after 30 minutes (thrombin time)” value is 16.9* s; the “T2, s after 60 minutes (thrombin time)” value is recorded as 15.9* s.

In the case of `Nc1cnc2c(=O)n([C@@H]3O[C@H](CO)[C@@H](O)[C@H]3O)[nH]c(=O)c2n1.[Na]` [Compound 21, sodium salt of 3-amino-7-(β-D-ribofuranosile)pyrazine[2,3-d]-6H-pyridazine-5,8-dione], in the test on plasma hemostasis (dose 15.0 mg/kg intravenously), the “T2, s After 120 minutes (thrombin time)” value is reported as 15.7* s; the “T2, s after 15 minutes (thrombin time)” value was 16.4* s; the “T2, s after 30 minutes (thrombin time)” value was 17.7* s; the “T2, s after 60 minutes (thrombin time)” value is 16.1* s. For the same molecule, in the test with plasma hemostasis (dose 30.0 mg/kg intravenously), the “T2, s After 120 minutes (thrombin time)” value was 15.6* s; the “T2, s after 15 minutes (thrombin time)” value is listed as 17.9* s; the “T2, s after 30 minutes (thrombin time)” value was 18.8* s; the “T2, s after 60 minutes (thrombin time)” value was 19.0* s. Besides, in the test on plasma hemostasis (dose 60.0 mg/kg intravenously), the “T2, s After 120 minutes (thrombin time)” value is recorded as 15.7* s; the “T2, s after 15 minutes (thrombin time)” value is listed as 16.2* s; the “T2, s after 30 minutes (thrombin time)” value is 17.7* s; the “T2, s after 60 minutes (thrombin time)” value is 16.3* s.

Consider `O=c1[nH]n([C@@H]2O[C@H](CO)[C@@H](O)[C@H]2O)c(=O)c2nc(O)cnc12.[Na].[Na]` [Compound 23, disodium salt of 2-hydroxy-7-(β-D-ribofuranosile)pyrazine[2,3-Cl]-6H-pyridazine-5,8-dione], for which the “rise of pHi” value in test [1] (2.0 mkg/ml) stood at 0.10 unit pHi; in test [1] (20.0 mkg/ml), 0.07 unit pHi. Moreover, the “increase of pHi” value in test [1] (setting [2]) is “do not initiate a change of pH”; in test [1] (setting [3]), 0.1 unit pH; in test [1] (setting [4]) it was 0.12 unit pH; in test [1] (setting [5]), “do not initiate a change of pH”; in test [1] (setting [6]), “no effect was found”; in test [1] (setting [7]) it was “no effect was found”. Further, the “increase of pHi” value was 0.08 unit pHi in test [1] (setting [8]), 0.08 unit pHi in test [1] (setting [9]), “no effect was found” in test [1] (setting [10]) and “no effect was found” in test [1] (setting [11]).

For the molecule `O=c1[nH][nH]c(=O)c2nccnc12.[Li]` [Compound 25, lithium salt of pyrazine[2,3-d]-6H-pyridazine-5,8-dione], in the test with thymus, the “Nitrites, thymus Supernatant, Administration of compounds” value was 0.417 ± 0.02 nmol/mg of protein and the “Thymus mass, Administration of compounds” value was 254 ± 14 mg.

Turning to `Nc1ncc2c(=O)[nH][nH]c(=O)c2n1` [Compound 36, 2-amino-pyrimido[4,5-d]-6H-pyridazine-5,8-dione], the entries for the “rise of pHi” value in test [1] (2.0 mkg/ml) and in test [1] (20.0 mkg/ml) were 0.10 unit pHi and 0.07 unit pHi, respectively. The “increase of pHi” value in test [1] (setting [2]) is “do not initiate a change of pH”; in test [1] (setting [3]) it was 0.1 unit pH; in test [1] (setting [4]) it was 0.12 unit pH; in test [1] (setting [5]) it was “do not initiate a change of pH”; in test [1] (setting [6]) it was “no effect was found”; in test [1] (setting [7]), “no effect was found”. Moreover, the “increase of pHi” value is 0.08 unit pHi in test [1] (setting [8]), 0.08 unit pHi in test [1] (setting [9]), “no effect was found” in test [1] (setting [10]) and “no effect was found” in test [1] (setting [11]).

Regarding `O=c1[nH][nH]c(=O)c2c(Br)ncnc12.[K]` [Compound 37, potassium salt of 4-bromine-pyrimido[4,5-D]-6H-pyridazine-5,8-dione], in the test with plasma hemostasis (dose 15.0 mg/kg intravenously), the “T2, s After 120 minutes (thrombin time)” value is given as 15.6* s; the “T2, s after 15 minutes (thrombin time)” value is recorded as 16.9* s; the “T2, s after 30 minutes (thrombin time)” value is 18.2* s; the “T2, s after 60 minutes (thrombin time)” value was 16.3* s. In the test on plasma hemostasis (dose 30.0 mg/kg intravenously), the “T2, s After 120 minutes (thrombin time)” value is recorded as 15.2* s; the “T2, s after 15 minutes (thrombin time)” value is given as 19.5* s; the “T2, s after 30 minutes (thrombin time)” value is reported as 20.3* s; the “T2, s after 60 minutes (thrombin time)” value is given as 21.0* s. Besides, in the test with plasma hemostasis (dose 60.0 mg/kg intravenously), the “T2, s After 120 minutes (thrombin time)” value was 15.0* s; the “T2, s after 15 minutes (thrombin time)” value is listed as 16.6* s; the “T2, s after 30 minutes (thrombin time)” value is on record as 17.8* s; the “T2, s after 60 minutes (thrombin time)” value is 16.2* s. For the same molecule, in the test with thymus, the “Nitrites, thymus Supernatant, Administration of compounds” value is 0.410 ± 0.01 nmol/mg of protein and the “Thymus mass, Administration of compounds” value is given as 263 ± 21 mg.
